In US20030086920A1, “Use of des-Aspartate-angiotensin I as an agent for the treatment and prevention of glomerulosclerosis and renal failure” (priority 2000, published 2003):

Assays:
cardiac hypertrophy = conditions: rat of average weight of 328 g, from the original parent patent; cited from earlier work
[1] = tested on: ablation nephropathic rats; experiment: Proteinuria in 5/6 nephrectomized (ablation nephropathic) rats; format: in vivo, Sprague Dawley rats; conditions: for 24-hour urinary excretion of protein: Weeks 9-16 post 5/6 nephrectomy, 762 nmoles/kg/day oral for 8 weeks, mean ± SEM
Method: Five-sixths nephrectomy was carried out as described by Morrison (11). Briefly, each animal was anaesthetized with 7% w/v chloral hydrate (0.4 g/kg, i.p.). An incision was made in the ventral abdominal wall to access the kidneys. Right nephrectomy was performed and the cranial and caudal third of the left kidney were cut off. Tissue adhesive (Histoccryl, B. Braun) was used to seal the cut ends of the left kidney and prevent bleeding. In this way 5/6 of the renal parenchyma was removed. This model results in focal and segmental glomerulosclerosis, resembling renal lesions in humans like oligomeganephronia, membranous nephropathy, minimal change nephritis, proliferative glomerulonephritis, analgesic nephropathy, diabetes mellitus, unilateral nephrectomy, cortical necrosis, and unilateral renal agenesis (9).
Following the operation, each animal was placed in a metabolic cage for 24 hours once a week for a duration of 8 weeks. The 24-hour urine output and the concentration of protein in the urine were measured. After the 8th week, the animals were randomly divided into two groups (8 animals per group). Animals in one of the group (the treatment group) were orally administered 762 nmoles/kg/day of des-Asp-angiotensin I dissolved in 0.5 ml of saline via a 1-ml syringe with a blunted needle for a period of 8 weeks. The dose of 762 nmoles/kg/day was calculated based on the maximum effective oral anti-cardiac hypertrophic dose (250 nmole per rat of average weight of 328 g) in the original parent patent. Animals in the other group (the control group) were similarly administered with 0.5 ml of saline. Weekly measurement of 24-hour urine output and the concentration of protein in the urine in these animals were carried out for another 8 weeks. The protocol was designed based on our preliminary observation that urinary excretion of protein in the 5/6 nephrectomized rats commenced to increase above the normal value in 7th to 8th week post nephrectomy. A repeat of the experiment with 12 nephrectomized rats per group was carried out.
Data were expressed as mean±SEM. […]

des-Aspartate angiotensin I [des-Asp-angiotensin I]
Maximum effective oral anti-cardiac hypertrophic dose (cardiac hypertrophy): 250 nmole per rat
24-hour urinary excretion of protein ([1]; 8 rats, first experiment, saline control 37.2 ± 2.3, p = 0.024): *28.7 ± 2.5 mg
24-hour urinary excretion of protein ([1]; 12 rats, repeat experiment, saline control 51.7 ± 4.7, p = 0.048): *39.6 ± 3.3 mg
Anti-proteinuric action (progressive development of proteinuria) ([1]; ablation nephropathic rats, oral dose of 762 nmoles/kg/day): effective agent in attenuating the progressive development of proteinuria
